Earlier results on one substance are cited in patent publication US20100323983A1, “PHARMACEUTICAL OR COSMETIC PREPARATIONS FOR TOPICAL AND/OR PARENTERAL APPLICATION, PREPARATION METHODS THEREOF, AND USES THEREOF” (priority 2007, published 2010).

For this data set the following is noted: humans.

On to hyaluronic acid, for which the “excretion in the urine” value is listed as “less than 1 % of total clearance”.
